The subject of series [1] is MCP-1 production in BV2 murine microglial cells. The series is described as follows: MCP-1 ELISA, BV2 microglial cells after CSF-1 stimulation. The following applies: Mus musculus, BV-2, 30 min pre-treatment, 100 ng/mL M-CSF 24 hours. It is filed as cell-based. The procedure:
Microglia cells were allowed to rest overnight at 37° C., 5% CO2. […] After stimulation, the culture supernatant was removed from each well and aliquoted into two different 96-well plates for subsequent ELISA assays.
In general terms: In an ELISA, binding on a coated surface is turned into a signal by an enzyme label.

Series [2] in a line: Caco-2 permeability assay. The format is in vitro ADME. The following applies: human; for Papp at 90 min, 20 μM: apical pH 6.5, 90 min. On the procedure: (§1) Caco-2 permeability and efflux assays were performed in cell-based permeability model using Caco-2/TC7 cells. For permeability assays, Caco-2/TC7 cells were seeded on to Millipore Millicell 96 and for efflux assays, 24-well plates were used. The plates with cells were ready to use between 21-25 days of culturing. Both permeability and efflux assays were performed using the TECAN automated liquid handling platform. For permeability assays, test compounds were prepared at 20 μM test concentrations in permeability assay buffer (10 mM HEPES in HBSS buffer, pH 6.5) containing 0.5% BSA. Basolateral permeability buffer (pH 7.4) contains 5% BSA. For efflux assays, test compounds were prepared at 1 μM test concentrations in permeability assay buffer (10 mM HEPES in HBSS buffer, pH 7.4) containing 0.5% BSA. For efflux assays, the basolateral permeability buffer (pH 7.4) contained 0.5% BSA. The permeability assay was initiated by adding 20 μM test solution to apical side of plate containing Caco-2/TC7 cells. In the efflux assay, 1 μM test compound was added to an apical compartment for apical to basolateral (A to B) permeability determination. For basolateral to apical (B to A) permeability determination, the test compound was added to the basolateral side. The plate was incubated for 90 min under constant shaking at 37° C. At the end of the incubation period, samples taken were analyzed using high pressure liquid chromatography with tandem mass spectrometry. For each assay, apparent permeability (Papp) and recovery was calculated from mass spectrometry data. For permeability assay, Papp values are reported as numbers×10^−07 cm/s. For efflux assays, the efflux ratio is calculated using Papp (basolateral to apical) to Papp (apical to basolateral), in addition to recovery values.
On the technique in general: Caco-2 cells form a polarised layer with tight junctions and transporters.

Series [3] is described as follows: Caco-2 efflux assay. It is filed as in vitro ADME. To be noted: human. On the procedure: as §1
Series [4] has as its target CYP2D6 (Homo sapiens (Human), UniProt P10635). The series is described as follows: CYP inhibition in human liver microsomes, CYP2D6. To be noted: dextromethorphan 10 μM, 30 min, read-out: CYP inhibition mean IC50 (INH) isoform: CYP2D6 Substrate: dextromethorphan. The format is in vitro ADME. On the procedure:
The objective of this assay method was to determine the inhibitory potential of test articles, in vitro, against specific cytochrome P450 (CYP) enzymes, using human liver microsomes (HLMs). The test compounds were diluted from pure DMSO stocks to a final test concentration range of 10 μM-0.07 μM in a 0.5% DMSO solution. […] After incubation, the samples were extracted, and protein precipitated in acetonitrile containing 0.1% formic acid. The samples were centrifuged to remove excess protein, and were analyzed by LDTD/MS/MS to determine IC50 values. Key concentrations of substrates were as follows: CYP2D6 Substrate—Dextromethorphan at 10 μM. CYP3A4 Substrates—Testosterone at 60 μM, and Midazolam at 2 μM. Dextromethorphan and testosterone were incubated with the test compounds for 30 minutes each. Midazolam was incubated with the test compounds for 10 minutes.
(In general: Microsomes from liver hold many membrane-bound enzymes, among them those of drug oxidation.)

Series [5] can be described thus: Rat hepatocyte intrinsic clearance. To be noted: 1 μM, 0.5 million cells/mL. The format is in vitro ADME. On the procedure:
(§2) Incubations were performed in 0.5 million hepatocytes cells/mL at 1 μM concentration of test compound in duplicate with rat, human, dog, monkey, or mouse hepatocytes, and the concentration-time course of test compound depletion was determined after withdrawing samples from the incubation at assay time points followed by liquid chromatography with tandem mass spectrometry analysis. An organic solvent was used to terminate incubations.

Series [6] is described as follows: Mouse hepatocyte intrinsic clearance. The format is in vitro ADME. To be noted: 1 μM, 0.5 million cells/mL. On the procedure: as §2
Series [7] can be described thus: Monkey hepatocyte intrinsic clearance. It is filed as in vitro ADME. To be noted: 1 μM, 0.5 million cells/mL. On the procedure:
as §2

Series [8] in a line: Human liver cytosol intrinsic clearance. It is filed as in vitro ADME. To be noted: human, cytosol. On the procedure:
(§3) Incubations were performed in 1 mg/mL human liver cytosol with high aldehyde oxidase (AO)/xanthine oxidase (XO) activity or 2.5 mg/mL human liver S-9 fraction with high AO/XO activity at 1 μM concentration of test compound in duplicate, and the concentration-time course of test compound depletion was determined after withdrawing samples from the incubation at assay time points followed by liquid chromatography with tandem mass spectrometry analysis. An organic solvent was used to terminate incubations.
(§4) These available known AO substrates along with the test compounds were analyzed using three in vitro systems (pooled human liver cytosol, liver S-9 fractions and human hepatocytes isolated from livers perfused with HTK media). Scaled unbound intrinsic clearances were calculated for the test compounds/new chemical entities and were compared to the in vivo unbound intrinsic clearances of the known AO substrates.

Series [9] in a line: Human liver S-9 intrinsic clearance. It is filed as in vitro ADME. To be noted: human; for CLint scaled at 1 μM: s9. The procedure: as §3, §4
A short description of series [10]: Metabolite profiles in human cryopreserved hepatocytes in absence and presence of AO inhibitor hydralazine. The format is in vitro ADME. The following applies: 2 hours; for % of Total (integrated MS peak areas), Human Hepatocytes: absence of hydralazine; for % of Total (integrated MS peak areas), Human Hepatocytes + Hydralazine: hydralazine 10 μM. On the procedure: After study sampling, the remaining samples from triplicate incubations were combined and processed for the metabolite identification study.
To each sample was added equal amounts of ice-cold acetonitrile (v/v) and the samples were then vortex mixed. Following centrifugation at approximately 13,000 rpm for 10 minutes, the supernatants were concentrated under nitrogen flow at 35° C. until approximately 0.1-0.2 mL of extract remained. Prior to analysis, the remaining extract was centrifuged at approximately 13,000 rpm for 15 minutes. The supernatant was injected into LC/UV/MS for analysis.
Metabolite identification was performed on UPLC (Thermo Vanquish) coupled with UV (Thermo Vanquish) and mass spectrometry (MS) detection (Thermo Orbitrap ID-X).
The mass peak areas were used for metabolite profiling, due to low sample concentrations. […] Metabolites having a peak area that accounts for equal to or more than 0.1% of the toral integrated MS peaks areas are reported in Table 1 below.
The metabolites are characterized based on their accurate masses (tolerance ≤5 ppm), mass fragmentation patterns, and comparison with other in vitro studies.
After study sampling, the remaining samples from triplicate incubations were combined and processed for metabolite identification study.
To each sample was added equal amounts of ice-cold acetonitrile (v/v) and the samples were vortex mixed. Following centrifugation at approximately 13,000 rpm for 10 minutes, the supernatants was concentrated under nitrogen flow at 35° C. until approximately 0.1-0.2 mL of extract remained. Prior to analysis, the remaining extract was centrifuged at approximately 13,000 rpm for 15 minutes. The supernatant was injected into LC/UV/MS for analysis.
The mass peak areas are used for metabolite profiling, due to low sample concentrations. […] Metabolites having a peak area that accounts for equal to or more than 0.1% of the toral integrated MS peaks areas are reported in Table 2 below.
The metabolites are characterized based on their accurate masses (tolerance≤5 ppm), mass fragmentation patterns, and comparison with other in vitro studies.

The mark [11] stands for this setting: Human Liver Cytosol Intrinsic Clearance _1.
[12] abbreviates: Human Liver Cytosol Intrinsic Clearance _2.
The mark [13] stands for this setting: s9, Human Liver S-9 Intrinsic Clearance _1.
Setting [14] is: s9, Human Liver S-9 Intrinsic Clearance _2.
Setting [15] is: incubation of Compound 24, 1 μM.

SMILES strings stand for the structures. Where two headings read alike, the source gives them in different places.

CYP2D6, sequence (P10635 whole entry, canonical isoform): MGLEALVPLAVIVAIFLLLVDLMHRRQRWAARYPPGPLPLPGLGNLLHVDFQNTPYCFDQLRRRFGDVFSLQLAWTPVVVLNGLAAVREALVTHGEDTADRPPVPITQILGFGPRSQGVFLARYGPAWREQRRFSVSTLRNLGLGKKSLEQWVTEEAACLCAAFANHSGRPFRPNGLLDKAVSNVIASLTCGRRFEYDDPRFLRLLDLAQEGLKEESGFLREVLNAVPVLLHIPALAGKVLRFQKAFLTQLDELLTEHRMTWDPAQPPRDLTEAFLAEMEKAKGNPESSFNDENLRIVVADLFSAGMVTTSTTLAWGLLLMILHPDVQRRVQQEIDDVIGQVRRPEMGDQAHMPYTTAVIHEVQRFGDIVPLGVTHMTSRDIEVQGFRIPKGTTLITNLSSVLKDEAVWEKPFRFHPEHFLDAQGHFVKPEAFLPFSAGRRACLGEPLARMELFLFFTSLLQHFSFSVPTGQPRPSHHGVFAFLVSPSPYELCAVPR

Turning to `COc1ccc(C2Oc3c(OC)cc(Cn4cnc5cccnc54)cc3O[C@H]2C)cn1` (some centres unmarked) [Compound 24], the values for the IC50 in [1] and in series [4] were 28.8 to 36.5 nM and above 10000 nM, respectively. This compound also registered a recovery at 90 min, 20 μM in series [2] of 80%. For the same compound, the Papp (commonly a coefficient for how fast a substance crosses the barrier) at 90 min, 20 μM in [2] amounted to 37.7 ×10⁻⁶ cm/s. In addition, the Papp A→B – broadly, how fast a substance crosses the layer from the apical side – at 90 min, 1 μM in [3] was 12.5 ×10⁻⁶ cm/s. Moreover, the Papp B→A (usually the apparent permeability from the basolateral to the apical side of a cell layer) at 90 min, 1 μM in series [3] turned out to be 25.6 ×10⁻⁶ cm/s. Also, the results for the recovery at 90 min, 1 μM in series [3] (read-out: Recovery A to B) and in [3] (read-out: Recovery B to A) were 93% and 94%, respectively. Moreover, the “Rat Hepatocyte Intrinsic Clearance” value in series [5] was determined as 8.72 μL/min/10^7 cells. Further, the “Mouse Hepatocyte Intrinsic Clearance” value in [6] was 9.36 μL/min/10^7 cells. In series [7], the “Monkey Hepatocyte Intrinsic Clearance” value is above 92 μL/min/10^7 cells. For the same compound, the CLint scaled – broadly, the capacity of the preparation to metabolise the compound, expressed as a volume cleared per time – at 1 μM stood at 10.5 mL/min/kg in series [8] and 9 mL/min/kg in [9]. The intrinsic metabolic clearance (microsomal CLint) (as a rule, a measure of how fast metabolising enzymes remove a compound, apart from limits set by blood flow) at 1 μM was determined as 5.1 µL/min/mg in series [8] (setting [11]), 5 µL/min/mg in [8] (setting [12]), 3.06 µL/min/mg in series [9] (setting [13]) and 2.76 µL/min/mg in series [9] (setting [14]). Also, in series [10] (setting [15]), the “% of Total (integrated MS peak areas), Human Hepatocytes” value was 72.2%. The “% of Total (integrated MS peak areas), Human Hepatocytes + Hydralazine” value in series [10] (setting [15]) was 90.9%.

As to `[2H]c1nc2cccnc2n1Cc1cc(OC)c2c(c1)O[C@@H](C)[C@H](c1ccc(OC)nc1)O2` [Compound 6, 3-(((2S,3S)-8-methoxy-2-(6-methoxypyridin-3-yl)-3-methyl-2,3-dihydrobenzo[b][1,4]dioxin-6-yl)methyl)-3H-imidazo[4,5-b]pyridine-2-d], the IC50 (usually the concentration that inhibits the measured activity by half) is 28.8 to 36.5 nM in series [1] and above 10000 nM in series [4]. This compound yielded a recovery at 90 min, 20 μM in series [2] of 73%. In series [2], this compound showed a Papp at 90 min, 20 μM of 37.7 ×10⁻⁶ cm/s. The compound further gave a Papp A→B at 90 min, 1 μM in series [3] of 13.5 ×10⁻⁶ cm/s. In addition, the Papp B→A at 90 min, 1 μM in series [3] was 29.2 ×10⁻⁶ cm/s. Further, the recovery at 90 min, 1 μM in [3] (read-out: Recovery A to B) was 88%; in series [3] (read-out: Recovery B to A), 82.5%. Also, the “Rat Hepatocyte Intrinsic Clearance” value in series [5] amounted to 9.00 μL/min/10^7 cells. In addition, the “Mouse Hepatocyte Intrinsic Clearance” value in series [6] turned out to be 6.63 μL/min/10^7 cells. The “Monkey Hepatocyte Intrinsic Clearance” value in [7] is 27.2 μL/min/10^7 cells. The CLint scaled at 1 μM in [8] is 3.9 mL/min/kg; in [9], 3.6 mL/min/kg. Besides, the microsomal CLint at 1 μM in series [8] (setting [11]) was 1.5 µL/min/mg; in series [8] (setting [12]), 2.2 µL/min/mg; in series [9] (setting [13]) it was below 1.1 µL/min/mg; in [9] (setting [14]) it was below 1.1 µL/min/mg. In addition, in series [10] (incubation of Compound 6, 1 μM), the “% of Total (integrated MS peak areas), Human Hepatocytes” value worked out at 87.1%. Also, the “% of Total (integrated MS peak areas), Human Hepatocytes + Hydralazine” value in [10] (incubation of Compound 6, 1 μM) stood at 92.0%.

For the origin of these results see patent publication US11530216B2, “Deuterated colony stimulating factor-1 receptor (CSF-1R) inhibitors” (Genzyme Corporation, priority 2020, dated 2022).
